In the supplement of paper PMC10307832:

Assays:
Experiment in all cases: relative viability (nuclei count vs DMSO), 5 days (fraction); higher = more cells survive
XMD8-85 + Palbociclib = compound: CN1CCN(CC1)C2=CC(=C(C=C2)NC3=NC=C4C(=N3)N(C5=CC=CC=C5C(=O)N4C)C)OC [XMD8-85] + CC(=O)c1c(C)c2cnc(Nc3ccc(N4CCNCC4)cn3)nc2n(C2CCCC2)c1=O [Palbociclib] (partner 0.5 µM)
Outline: (§1)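 Lung cancer cell lines in 1536-well plates were dosed by pin tool the day after seeding, either with one drug alone or with a fixed anchor-drug dose plus five library-drug doses (not always all listed) in √10 steps. After 5 days, cells were fixed and their nuclei stained in one step (final 0.05% Triton X-100, 1% formaldehyde, 1 ug/ml Hoechst), then counted on 4× images. Relative viability is the nuclei count in treated wells divided by that in vehicle wells. Values are medians of duplicate plates.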

4EGI-1 + Decitabine = compound: O=C(O)C(Cc1ccccc1[N+](=O)[O-])=NNc1nc(-c2ccc(Cl)c(Cl)c2)cs1 (mixture of isomers) [4EGI-1] + Nc1ncn([C@H]2C[C@H](O)[C@@H](CO)O2)c(=O)n1 [Decitabine] (partner 2 µM)
Outline: as §1

4EGI-1 + Crizotinib = compound: O=C(O)C(Cc1ccccc1[N+](=O)[O-])=NNc1nc(-c2ccc(Cl)c(Cl)c2)cs1 (mixture of isomers) [4EGI-1] + C[C@@H](Oc1cc(-c2cnn(C3CCNCC3)c2)cnc1N)c1c(Cl)ccc(F)c1Cl [Crizotinib] (partner 1 µM)
Outline: as §1

XMD8-85 + AZD7762 = compound: CN1CCN(CC1)C2=CC(=C(C=C2)NC3=NC=C4C(=N3)N(C5=CC=CC=C5C(=O)N4C)C)OC [XMD8-85] + NC(=O)Nc1cc(-c2cccc(F)c2)sc1C(=O)N[C@H]1CCCNC1 [AZD7762] (partner 0.2 µM)
Outline: as §1

Row | Cell Line | relative viability (XMD8-85 + Palbociclib; first compound 0.08 µM) | relative viability (XMD8-85 + Palbociclib; first compound 0.253 µM) | relative viability (XMD8-85 + Palbociclib; first compound 0.8 µM) | relative viability (XMD8-85 + Palbociclib; first compound 2.53 µM) | relative viability (XMD8-85 + Palbociclib; first compound 8 µM) | relative viability (4EGI-1 + Decitabine; first compound 0.5 µM) | relative viability (4EGI-1 + Decitabine; first compound 1.581 µM) | relative viability (4EGI-1 + Decitabine; first compound 5 µM) | relative viability (4EGI-1 + Decitabine; first compound 15.81 µM) | relative viability (4EGI-1 + Decitabine; first compound 50 µM) | relative viability (4EGI-1 + Crizotinib; first compound 0.5 µM) | relative viability (4EGI-1 + Crizotinib; first compound 1.581 µM) | relative viability (4EGI-1 + Crizotinib; first compound 5 µM) | relative viability (4EGI-1 + Crizotinib; first compound 15.81 µM) | relative viability (4EGI-1 + Crizotinib; first compound 50 µM) | relative viability (XMD8-85 + AZD7762; first compound 0.08 µM) | relative viability (XMD8-85 + AZD7762; first compound 0.253 µM) | relative viability (XMD8-85 + AZD7762; first compound 0.8 µM) | relative viability (XMD8-85 + AZD7762; first compound 2.53 µM) | relative viability (XMD8-85 + AZD7762; first compound 8 µM)
1 | NCI-H358 | 0.244 | 0.126 | 0.138 | 0.155 | 0.132 | 0.218 | 0.203 | 0.189 | 0.138 | 0.115 | 0.566 | 0.413 | 0.645 | 0.378 | 0.247 | 0.446 | 0.497 | 0.667 | 0.639 | 0.399
2 | NCI-H441 | 0.206 | 0.209 | 0.197 | 0.195 | 0.2 | 0.262 | 0.258 | 0.251 | 0.244 | 0.18 | 0.968 | 0.472 | 0.72 | 0.461 | 0.213 | 1.21 | 1.01 | 1.12 | 1.11 | 0.562
3 | NCI-H460 | 0.129 | 0.221 | 0.139 | 0.223 | 0.0809 | 0.562 | 0.246 | 0.476 | 0.188 | 0.0663 | 1.2 |  | 1.02 | 0.517 | 0.0403 | 0.624 | 0.643 | 0.69 | 0.659 | 0.432
4 | NCI-H647 | 0.342 | 0.325 | 0.406 | 0.523 | 0.282 | 0.433 | 0.309 | 0.391 | 0.218 | 0.155 | 1.05 | 1.05 | 1.16 | 0.656 | 0.155 | 0.306 | 0.371 | 0.586 | 0.503 | 0.198
5 | NCI-H650 | 0.275 | 0.32 | 0.302 | 0.288 | 0.255 | 0.352 |  | 0.34 | 0.332 | 0.322 | 0.847 |  | 0.811 | 0.596 | 0.59 | 0.92 | 0.991 | 1 | 0.829 | 0.781
6 | NCI-H727 |  | 0.689 | 0.6 | 0.6 |  | 0.731 | 0.854 | 0.858 | 0.808 | 0.606 | 1.7 | 0.926 | 0.716 | 0.588 | 0.343 | 0.768 | 0.619 | 0.465 | 0.576 | 0.42
7 | NCI-H838 | 0.224 | 0.197 | 0.227 | 0.251 | 0.184 | 0.469 | 0.509 | 0.389 | 0.312 | 0.238 | 0.843 |  | 0.905 | 0.706 | 0.378 | 0.972 | 0.987 | 0.915 | 0.856 | 0.868
8 | NCI-H1355 | 0.395 | 0.365 |  | 0.619 | 0.306 | 0.364 | 0.36 | 0.358 | 0.328 | 0.336 | 1.18 | 0.952 | 1.03 | 0.779 | 0.748 | 0.678 | 0.697 | 0.798 | 0.817 | 
